Experiments:
hCB2 receptors = hCB2 receptors (Homo sapiens, UniProt P34972); assay: CB2 receptor radioligand binding, [3H]CP55,940, CHO-K1 hCB2 membranes; details: for interaction with CB2R: up to 100 μM
hCB1R = hCB1R (Homo sapiens, UniProt P21554); assay: CB1 receptor radioligand binding, [3H]CP55,940, CHO-K1 hCB1R membranes; details: for increase of [3H]CP55,940 binding at CB1R: maximal increase over vehicle
AEA uptake = AEA uptake assay, intact U937 cells; type: cell-based
MAGL = target: T1, MAGL (Homo sapiens, UniProt Q99685); assay: MAGL activity assay, U937 cell homogenate; type: biochemical
T1 sequence (Q99685 1-303): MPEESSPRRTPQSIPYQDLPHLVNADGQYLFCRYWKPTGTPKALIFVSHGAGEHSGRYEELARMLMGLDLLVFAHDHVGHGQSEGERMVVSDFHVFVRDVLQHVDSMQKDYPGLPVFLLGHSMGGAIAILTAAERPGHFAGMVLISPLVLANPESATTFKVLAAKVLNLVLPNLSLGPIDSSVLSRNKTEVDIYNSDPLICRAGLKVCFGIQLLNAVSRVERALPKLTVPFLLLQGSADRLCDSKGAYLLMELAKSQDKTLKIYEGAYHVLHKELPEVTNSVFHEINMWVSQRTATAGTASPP

[1] = acute feeding model; cited from earlier work

Chain of hCB1R (P21554 whole entry): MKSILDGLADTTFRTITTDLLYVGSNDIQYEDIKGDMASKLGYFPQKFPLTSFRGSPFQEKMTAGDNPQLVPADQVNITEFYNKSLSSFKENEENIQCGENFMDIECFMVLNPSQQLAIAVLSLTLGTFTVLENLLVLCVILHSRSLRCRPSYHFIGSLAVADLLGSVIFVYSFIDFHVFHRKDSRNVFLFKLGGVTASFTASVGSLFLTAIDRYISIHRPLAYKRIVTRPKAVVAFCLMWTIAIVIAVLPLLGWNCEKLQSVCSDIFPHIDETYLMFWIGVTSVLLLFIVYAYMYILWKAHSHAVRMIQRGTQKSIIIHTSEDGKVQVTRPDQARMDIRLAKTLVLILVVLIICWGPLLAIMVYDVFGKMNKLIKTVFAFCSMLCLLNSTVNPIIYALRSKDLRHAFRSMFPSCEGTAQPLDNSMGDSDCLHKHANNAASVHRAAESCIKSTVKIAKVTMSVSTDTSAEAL
Chain of hCB2 receptors (P34972 whole entry): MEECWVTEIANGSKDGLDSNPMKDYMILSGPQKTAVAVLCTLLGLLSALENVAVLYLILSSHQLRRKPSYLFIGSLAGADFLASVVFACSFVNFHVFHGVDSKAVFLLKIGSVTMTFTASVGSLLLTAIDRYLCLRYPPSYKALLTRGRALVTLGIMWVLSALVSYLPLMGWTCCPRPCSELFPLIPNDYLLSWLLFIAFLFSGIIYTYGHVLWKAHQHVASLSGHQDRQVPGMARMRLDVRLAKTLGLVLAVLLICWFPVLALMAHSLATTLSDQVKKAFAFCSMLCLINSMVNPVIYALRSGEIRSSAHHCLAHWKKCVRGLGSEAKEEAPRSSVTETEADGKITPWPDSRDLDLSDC

O=C(Nc1ccc(Cl)cc1)Nc1cccc(Nc2cccc(N3CCCC3)c2)c1 [FG45a, 1-(4-Chlorophenyl)-3-(3-{[3-(pyrrolidin-1-yl)phenyl]amino}phenyl)urea]
interaction with CB2R (hCB2 receptors): did not significantly interact

O=C(Nc1ccc(Cl)cc1)Nc1cccc(-c2cccc(N3CCCC3)n2)c1 [PSNCBAM-1, 1-(4-Chlorophenyl)-3-{3-[6-(pyrrolidin-1-yl)pyridin-2-yl]phenyl}urea]
increase of [3H]CP55,940 binding at CB1R (hCB1R): 15–20% | AEA cell uptake result in words (AEA uptake): negative | MAGL result in words (MAGL): negative | binding to CB2R (hCB2 receptors; up to 10 μM): did not show any significant binding | food intake and body weight [1]: decrease food intake and body weight

O=C(Nc1ccc(Cl)cc1)Nc1cccc(-c2cccc(N3CCCC3)c2)c1 [SC4a, 1-(4-Chlorophenyl)-3-[3′-(pyrrolidin-1-yl)biphenyl-3-yl]urea]
increase of [3H]CP55,940 binding at CB1R (hCB1R): 15–20%

O=C(Cc1ccc(Cl)cc1)Nc1cccc(-c2cccc(N3CCCC3)c2)c1 [SC33, 2-(4-Chlorophenyl)-N-[3′-(pyrrolidin-1-yl)biphenyl-3-yl]acetamide]
binding to CB1R (hCB1R; at 100 μM): approx. 10% | influence on [3H]CP55,940 binding to CB1R (hCB1R; up to 10 μM): does not influence | Ki (hCB2 receptors): ~50 µM

O=C(Nc1ccc(Cl)cc1)Nc1cccc(Nc2cccc(N3CCCC3)n2)c1 [SN15b]
interaction with CB2R (hCB2 receptors): did not significantly interact
